Columns and labels:
Assay type in all cases: cell-based, human
A375 melanoma cell line = experiment: SRB cell viability assay in A375 cells; settings: for EC50: Homo sapiens, A-375, read-out: half maximal effective concentration (EC50) able to reduce cell viability; for EC50 / effect on cell viability / A375 cell viability, inhibitor administered alone: A375, SRB, 72 h; for effect on cell viability: at least until 40 µM; for potentiation of the decrease of A375 cell viability induced by 20 µM salviolone or cryptotanshinone: 10 µM inhibitor added 2 h before the diterpene; for A375 cell viability, inhibitor administered alone: concentration-dependent
Description: (§1) In preliminary experiments, the evaluation of cell viability at different time after compound administration was carried out with sulforhodamine B (SRB) assay. Indeed, after 24-, 48-, and 72-h treatment, an evident time dependence in the inhibition of cell growth was registered (data not shown). Thus, to evaluate A375 and MeWo cell viability, we decided to perform further SRB experiments with each compound only after 72 h.
(§2) Human MeWo (HTB-65) and A375 (CRL-1619) melanoma cell lines as well as the normal human epidermal melanocyte (NHEM) (PCS-200-013) cell line (ATCC, Manassas, VA, USA) were cultured at 37 °C under 5% CO2 in a humidified atmosphere. Roswell Park Memorial Institute 1640 medium (RPMI, Gibco, Ref.21875, Thermo Scientific, Waltham, MA, USA) was used to culture MeWo cells, while Dulbecco’s Modified Eagle Medium (DMEM, Gibco, Ref. 61965, Thermo Scientific, Waltham, MA, USA) was used for A375 and NHEM cell lines. The culture media were supplemented with 10% fetal bovine serum (FBS, Gibco, Thermo Scientific, Waltham, MA, USA) plus 1% Antibiotic Antimycotic Solution (Gibco, Thermo Scientific). The MEK1 inhibitor U0126 (CAY-70970) and the PI3K inhibitor LY294002 (CAY-70920) were provided by Cayman Chemical, Ann Arbor, MI, USA.
(§3) Melanoma MeWo and A375 cells or NHEM were seeded in 96-well plates (5.0 × 10^3 cells/well for MeWo cells and 2.9 × 10^3 cells/well for A375 or NHEM). After 24-h culture, the cells were treated with different concentrations of compounds 1–7. After 72-h treatment, the cells were fixed by adding 25 µL/well of 50% (w/v) TCA directly into the culture medium. The plates were incubated at 4 °C for 1 h, washed four times with ddH2O, and dried at RT. Staining was performed by adding 50 µL/well of 0.04% (w/v) sulforhodamine B (SRB) sodium salt solution (Sigma-Aldrich, Milan, Italy). After 1-h incubation at RT, the plates were rinsed with 1% HAc and air-dried. SRB was solubilized in a 10 mM Tris-base solution pH 10.5 and Abs492 measured in the plate reader TECAN NanoQuant Infinite M200 Pro (Tecan Group Ltd., Männedorf, Switzerland). Six replicates for each condition/data point were performed.

MeWo melanoma cell line = experiment: SRB cell viability assay in MeWo cells; settings: SRB, 72 h; for EC50: Homo sapiens, read-out: EC50 useful in diminishing cell viability; for effect on cell viability: at least until 40 µM
Description: as §1, §2, §3

pERK1/2 = experiment: Immunoblot of pERK1/2 in A375 cells; settings: 10 µM U0126 with compound 4 or 7 at 20 µM
Description: (§4) A375 cells were seeded in 6 cm Petri dishes (190 300 cell/dish) and treated with different compounds at 10 or 20 μM. After 48- or 72-h treatment, the cells were scraped using warm 1× sample buffer (2% SDS, 10% glycerol, 50 mM Tris-HCl, 1.75% β-mercaptoethanol, and bromophenol blue) and boiled at 99 °C for 10 min. Total protein extracts were kept at −80 °C until use.
(§5) Protein extracts were analyzed with a 7.5 or 10% polyacrylamide SDS-PAGE and transferred to a polyvinylidene difluoride membrane (PVDF, Thermo Fisher Scientific, Waltham, MA, USA). The membranes were blocked at RT for 1 h with TBST buffer (10 mM Tris-HCl pH 7.5, 100 mM NaCl, 0.1% Tween20) containing 4% Milk (Formulat). Then, they were incubated on a shaker, overnight (ON) at 4 °C, with 5% BSA solution containing primary antibodies against p-Tyr705-STAT3 (#9145, 1:1000), pRb (#8516, 1:2000), pERK (#4370, 1:1000), pAkt (#4060, 1:2000), pSer15-P53 (#9286, 1:2000) (Cell Signaling Technology, Danvers, […], USA), Akt (GTX121937, 1:3000), ERK (GTX134452, 1:6000), Cyclin A2 (GTX-103042, 1:3000), p-Thr160Cdk2 (GTX-133862, 1:3000), p21 (GTX-629543, 1:3000) (Genetex, Alton Pkwj Irvine, CA, USA), p53 (Sc-263, 1:1000), STAT3 (Sc-482, 1:1000), and p-Ser727-STAT3 (Sc-136193, 1:1000) (Santa Cruz Biotechnology, Dallas, TX, USA). The membranes were washed three times with TBST buffer for 30 min and then incubated for 1 h with a horseradish-peroxidase-conjugated secondary antibody (anti-rabbit 1:6000, Genetex), (anti-mouse, 1:4000, Cell Signaling Technology, Danvers, […], USA). They were washed another three times for 30 min with TBST buffer. All protein extracts were normalized with a β-actin protein antibody (GTX-124214, 1:10,000; Genetex, Alton Pkwj Irvine, CA, USA). Immuno-detection was carried out with an ECL kit (GE-Healthcare, Little Chalfont, UK), and the chemiluminescence signals were detected with ChemiDoc (Bio-Rad, Hercules, CA, USA).

pAkt = experiment: Immunoblot of pAkt in A375 cells; settings: 10 µM LY294002 with compound 7 or 4 at 20 µM
Description: as §4, §5

Compound: Cc1coc2c1C(=O)C(=O)c1c-2ccc2c1CCCC2(C)C [Compound 1, tanshinone IIA]
- EC50 (A375 melanoma cell line): ~1 µM
- EC50 (MeWo melanoma cell line): 2 µM

Compound: Cc1coc2c1C(=O)C(=O)c1c-2ccc2c1[C@@H](O)CCC2(C)C [Compound 2, 1α-hydroxytanshinone]
- effect on cell viability (A375 melanoma cell line): ineffective
- effect on cell viability (MeWo melanoma cell line): ineffective

Compound: Cc1coc2c1C(=O)C(=O)c1c-2ccc2c1C(=O)CCC2(C)C [Compound 3, 1-oxotanshinone]
- effect on cell viability (A375 melanoma cell line): ineffective
- effect on cell viability (MeWo melanoma cell line): ineffective

Compound: C[C@H]1COC2=C1C(=O)C(=O)c1c2ccc2c1[C@H](O)CCC2(C)C [Compound 5, 1β-hydroxycryptotanshinone]
- activity rating for inhibition of melanoma cell viability (A375 melanoma cell line; A375 and MeWo, SRB): poorly active
- EC50 (A375 melanoma cell line): ~42 µM
- EC50 (MeWo melanoma cell line): 45 µM

Compound: CC1COc2c1c(=O)oc(=O)c1c3c(ccc21)C(C)(C)CCC3O (stereo not drawn) [Compound 6, 1α-hydroxyanhydride-16R-cryptotanshinone]
- effect on cell viability (A375 melanoma cell line): ineffective
- effect on cell viability (MeWo melanoma cell line): ineffective

Compound: N#CC(=C(/N)Sc1ccccc1N)/C(C#N)=C(/N)Sc1ccccc1N [Compound U0126, reference compound]
- potentiation of the decrease of A375 cell viability induced by 20 µM salviolone or cryptotanshinone (A375 melanoma cell line): did not potentiate
- A375 cell viability, inhibitor administered alone (A375 melanoma cell line): inhibited
- pERK1/2 expression level on co-administration (pERK1/2): strongly inhibited

Compound: O=c1cc(N2CCOCC2)oc2c(-c3ccccc3)cccc12 [LY294002, reference compound]
- potentiation of the decrease of A375 cell viability induced by 20 µM salviolone or cryptotanshinone (A375 melanoma cell line): did not potentiate
- A375 cell viability, inhibitor administered alone (A375 melanoma cell line): inhibited
- pAkt expression level on co-administration (pAkt): inhibition
